Reference: patent publication US20110178100A1, “APOPTOSIS INHIBITOR” (NIHON UNIVERSITY, priority 2008, published 2011)
Entries after “also recorded” stand apart in the source; their conditions may differ.

Tests used:
[1] = system: HT22 cells; test: Hypoxia/reoxygenation-induced cell death, LDH release assay; assay type: cell-based
Method: (§1) HT22 cells were cultured in DMEM containing 10% FBS in a 10% CO2 incubator at 37° C.
(§2) Hypoxia loading was performed by using an oxygen absorber/CO2 generator AnaeroPack Kenki For Cell™, and reoxygenation was performed by restoring the condition to normoxia.
LDH assay was conducted using a supernatant of a medium of cells treated as intended as a sample and a measurement kit (LDH cytotoxic test).
Specifically, the cells were cultured in a 96-well assay plate and treated as intended. Then, 50 μL of only the medium was collected and transferred to a newly prepared plate. A coloring reagent was added to each well. After incubation for 20 minutes, 100 μL of a reaction stop solution was added thereto, and the absorbance at 570 nm was measured using a microplate reader. The results are indicated relative to the absorbance of control cells defined as 100%.
LDH release was measured after hypoxia for 18 hours (H18) and subsequent reoxygenation for 24 hours (R24). Cells placed under normoxia for 42 (18+24) hours (N42) were used as a control. GR103691 was added immediately before reoxygenation (or after 18-hour culture to the control cells).
LDH release was measured after hypoxia for 18 hours (H18) and subsequent reoxygenation for 24 hours (R24). Cells placed under normoxia for 42 (18+24) hours (N42) were used as a control. Nafadotride was added immediately before reoxygenation (or after 18-hour culture for the control cells).

[2] = system: HT22 cells; test: Glutamic acid-induced cell death, MTT assay; assay type: cell-based; settings: MTT 24 hours after glutamic acid, added immediately before glutamic acid
Method: (§3) HT22 cells were cultured in DMEM containing 10% FBS in a 10% CO2 incubator at 37° C. MTT assay was conducted according to a ordinary method by using cells treated as intended as a sample. Specifically, the cells were cultured in a 96-well assay plate and treated as intended. Then, 10 μL of an MTT solution was added to each well, followed by incubation for 4 hours. 100 μL of a reaction stop solution was added thereto. The plate was left overnight, and the absorbance (measurement wavelength: 570 nm, control wavelength: 655 nm) was then measured using a microplate reader. The results are indicated relative to the absorbance of control cells defined as 100%. In this context, the MTT value is a value that indicates mitochondrial reductive capacity. This value correlates with cell viability in many cases and is therefore used as an index of cell viability. It has been confirmed as to the glutamic acid-induced cell death of HT22 cells that the results of MTT assay correlate with cell viability. MTT assay was conducted 24 hours after addition of glutamic acid. GR103691 was added immediately before the addition of glutamic acid (Glu).

[3] = system: HT22 cells; test: Tunicamycin-induced cell death, MTT assay; assay type: cell-based; settings: MTT 24 hours after tunicamycin, added immediately before tunicamycin
Method: as §3, with “tunicamycin (TM).” for “glutamic acid.”, “tunicamycin (TM).” for “glutamic acid (Glu).”

[4] = system: HT22 cells; test: Intracellular reactive oxygen species (ROS) assay with H2DCFDA after hypoxia-reoxygenation loading; assay type: cell-based; settings: 3 μM, added immediately before reoxygenation, hypoxia 18 h, reoxygenation 3 h
Method: as §1, §2
Intracellular ROS levels were measured by using H2DCFDA. Cells were treated as intended and then treated with 5 μM H2DCFDA. After 15 minutes, the cells were observed under a fluorescence microscope (480 nm/526 nm).
Time-dependent change of ROS was examined during reoxygenation for 12 hours after hypoxia for 18 hours (H18). Cells placed under normoxia for the same hours (N30) were used as a control. GR103691 was added at a concentration of 3 μM immediately before reoxygenation (or after 18-hour culture to the control cells).

[5] = system: hippocampal CA1 region; test: Mouse cerebral ischemia/reperfusion model, FJB and ssDNA staining of hippocampal CA1 region; assay type: in vivo, C57BL/6J mice; settings: 72 hours after reperfusion
Method: Male C57BL/6J mice (9-12 week old) were used. After halothane anesthesia, the left and right common carotid arteries were ligated for 17 minutes while the cerebral blood flow was monitored. Then, the blood flow was resumed to prepare a cerebral ischemia/reperfusion model. Paraffin sections of the brain were prepared 72 hours after reperfusion according to an ordinary method and immunostained with Fluoro Jade B (FJB) that stains dead cells green or with single-stranded DNA (ssDNA) that permits detection of apoptosis cells by the staining of nuclear fragmentation. The cells were observed under a microscope. GR103691 was administered at a dose of 1, 3, or 10 mg/kg from the tail vein of each mouse within 10 minutes after reperfusion. Moreover, for comparison, edaravone (manufactured by CALBIOCHEM) used for improving neurological symptoms, problems with movement of daily living, and dysfunction at the acute stage of brain infarction was administered at a dose of 3 or 10 mg/kg to each mouse. A saline-administered group and a sham group without only ischemia treatment were observed as controls.
In FIG. 7, the bright green color represents apoptosis cells. Moreover, the number of FJB-positive cells was counted to determine its proportion to the total number of cells (FIG. 8). The results of each group are indicated as mean±standard error.

[6] = HT22 cells, added immediately before reoxygenation
[7] = HT22 cells, hypoxia 18 h, reoxygenation 24 h, added immediately before reoxygenation
[8] = 10 mg/kg from the tail vein within 10 minutes after reperfusion
[9] = 1, 3, or 10 mg/kg from the tail vein within 10 minutes after reperfusion

| SMILES | increase of LDH release caused by H18/R24 [1, 6] | LDH release of the control cells ([1]; HT22 cells under normoxia 42 h (N42), added after 18-hour culture) | LDH release of H18/R24-treated cells (hypoxia/reoxygenation-induced cell death) [1, 7] | concentration at which the reduction of LDH release of H18/R24-treated cells was significant [1, 7] [µM] | reduction of MTT value caused by glutamic acid (glutamic acid-induced cell death) [2] | reduction of MTT value caused by TM (tunicamycin-induced cell death) [3] | transient increase of ROS in H18/R3-treated cells (H2DCFDA-positive cells) [4] | cell death in the hippocampal CA1 region (FJB-positive cells) [5, 8] | ssDNA-positive cells in the hippocampal CA1 region [5, 8] | cell death in the hippocampal CA1 region (FJB-positive cells) [5, 9] | ssDNA-positive cells in the hippocampal CA1 region [5, 9] | decreasing effect on ssDNA-positive cells in the hippocampal CA1 region, compared with GR103691 ([5]; edaravone 3 or 10 mg/kg) | inhibitory effect on cell death in the hippocampal CA1 region (FJB-positive cells), compared with GR103691 ([5]; edaravone 3 or 10 mg/kg) |
| --- | --- | --- | --- | --- | --- | --- | --- | --- | --- | --- | --- | --- | --- |
| CCCCN1CCCC1CNC(=O)c1cc(C#N)c2ccccc2c1OC (centres unmarked) [nafadotride, reference compound] | did not inhibit apoptosis; also recorded: did not influence increase of LDH release |  |  |  |  |  |  |  |  |  |  |  |  |
| COc1ccccc1N1CCN(CCCCNC(=O)c2ccc(-c3ccc(C(C)=O)cc3)cc2)CC1 [GR103691, 4′-acetyl-N-[4-[4-(2-methoxyphenyl)-1-piperazinyl]butyl]-[1,1′-biphenyl]-4-carboxamide] | almost the maximum effect | not influenced | reduced the LDH release of the H18/R24-treated cells in a concentration-dependent manner | ≥ 1 | significantly recovered the reduction of MTT value | did not influence the reduction of MTT value | inhibited | significantly inhibited | significantly decreased | inhibited such cell death in a dose-dependent manner | decreased by GR103691 in a dose-dependent manner |  |  |
| CC1=NN(c2ccccc2)C(=O)C1 [edaravone, reference compound] |  |  |  |  |  |  |  |  |  |  |  | almost the same level | almost the same level |
